Source: US20230263801A1, “COMBINATION THERAPY OF PARP INHIBITORS” (IMPACT THERAPEUTICS (SHANGHAI), INC, priority 2020, published 2023)
Like-named read-outs stand apart in the source and are kept apart here. Marks after values point to notes of the source that are not given here.

What was measured:
[1] = tested on: human small cell lung cancer NCI-H209 cells; assay: CCK-8 growth inhibition of NCI-H209 cells, IMP4297 alone and combined with TMZ; format: cell-based; details: NCI-H209, 120 h
Procedure: The CCK-8 detection method was used to determine the inhibitory effect of IMP4297 combined with TMZ on the growth of human small cell lung cancer NCI-H209 cells. The resuscitated human small cell lung cancer NCI-H209 cells were inoculated into a culture dish, experimental medium (RPMI1640+20% FBS) was added, and the culture dish was incubated at 37° C. and 5% CO2 in an incubator. Cells with good growth and suitable confluence were selected for the experiment, and centrifiged at 800 rpm for 5 min. The supernatant was discarded. The cells were resuspended with fresh medium and inoculated into a 96-well cell culture plate at a suitable cell density. 190 μL of cell suspension liquid was inoculated into each well. The test compound (including IMP4297, TMZ and reference compound AZD2281) was serially diluted with DMSO at a ratio of 1:3 and 1:10 to 10 concentrations (the last concentration is the DMSO negative control). 5 μL of each concentration was added to 120 μL of media (25 times dilution). The mixture was mixed well by shaking. Separate medication: 5 μL of the diluted medium containing the corresponding concentration of the compound and 5 μL of the medium were added respectively, combined medication. 5 μL of the diluted medium containing the corresponding concentration of the compound and 5 μL of the medium containing the final concentration of 50 μM of TMZ were added respectively. The final concentration of DMSO is […]. The culture plate was then incubated at 37° C. and 5% CO2 in an incubator for 5 days. 20 μL of CCK-8 detection reagent was added to each well, and the culture was continued for 2 hours. The culture plate was then shaked for 10 minutes and placed on a multi-function reader to measure the absorbance value (OD value) using the wavelength of 450/65011m. Graph Pad Prism 6.0 was used to analyze the data. The inhibitory effects of compounds on cell proliferation were plotted based on cell viability and the logarithm of compound concentration. Cell viability % (nM) ODcompound/ODDMSO×100. […] The combination index was calculated using CalcuSyn software. […]

[2] = tested on: NCI-H209 human small cell lung cancer xenograft tumor; assay: In vivo efficacy of IMP4297 combined with TMZ in NCI-H209 xenograft tumor model; set-up: species or system nude mice; details: for body weight reduction during the experiment: single agent-treated groups (TMZ 3 mg/kg; IMP4297 10 mg/kg)
Procedure: The anti-tumor efficacy of the compound IMP4297 combined with TMZ was evaluated in the NCI-H209 human small cell lung cancer xenograft tumor model in nude mice. For this purpose, human small cell lung cancer NCI-H209 cells were inoculated into the subcutaneous breast area of the right axilla of nude mice. The cell inoculation amount was 2×10^6 logarithmic growth phase cells. The inoculated mice were used after transplanted tumors were formed. Vigorously growing tumor tissues were cut into small pieces of 1×1×1 mm^3, and inoculated under the skin of the breast area of the right axilla of each BALB/c nude mouse. When the average tumor volume reached about 124.08 (57.16-280.79) mm^3, nude mice were randomly grouped according to the tumor volume and were administered the drugs.
After grouping and drug treatment start, the weight of nude mice was weighed twice a week and recorded. Weight change (%)=(Wt−W1)/W1×100%, wherein W1 is the body weight measured at the time of grouping administration (i.e D1), and Wt is the weight of the recording day. Weight change (%) is a measure of treatment-related toxicity (when average weight loss exceeded 15%, treatment was stopped or the schedule was adjusted until recovery; when average weight loss exceeded 20%, the experiment was terminated). The tumor diameter (length and width) was measured twice a week with a vernier caliper. The tumor volume (length×width^2/2) and the relative tumor volume RTV=Vt/V1 were calculated, wherein V1 is the tumor volume at the time of grouping administration (i.e. D1), and Vt is the tumor volume at each measurement. […] TGM(%)=[(CVt−CV1)−(TVt−TV1)]/(CVt−CV1)×100%, wherein […] is the tumor volume on the recording day of the vehicle control group, […] is the tumor volume of the vehicle control group at the time of grouping administration, TVt is the tumor volume of the drug administration group on the recording day, and TV1 is the tumor volume of the drug administration group at the time of grouping administration.
After the experiment, 3 nude mice were randomly selected from each group, and 300 μL of whole blood was collected from the orbit and placed in a BD K2EDTA anticoagulant tube (REF367841) for routine blood testing.
GraphPad Prism 6.0 software two-way ANOVA was used to compare the mean tumor volume and relative tumor volume between groups. Compared with the control group (vehicle), *p<0.05 (statistical difference), **p<0.01 (significant statistical difference), ***p<0.001 (very significant statistical difference); compared with the TMZ group, ^#p<0.05 (statistical difference), ^##p<0.01 (significant statistical difference), ^###p<0.001 (very significant statistical difference); compared with the IMP4297 group, ^+p<0.05 (statistical difference), ^++p<0.01 (significant statistical difference), ^+++p<0.001 (very significant statistical difference).

BRCA mutant animal model = details: cited from earlier work
recurrent glioblastoma = details: patients with recurrent glioblastoma; cited from earlier work
[3] = tested on: animal model with BRCA mutation; details: cited from earlier work
cancer [4] = details: QD continuously, cited from earlier work
cancer [5] = assay: Clinical studies of IMP4297 as a single agent in patients with cancer (ESMO 2020 abstracts); format: in vivo; details: 20-120 mg QD in human
PARP1 [6] = target: T1, PARP1 (Homo sapiens, UniProt P09874); assay: PARP1 trapping in DU145 cells treated with MMS (Western blot of nuclear chromosomal fraction, ImageJ); format: cell-based; set-up: the nuclear chromosomal component was extracted according to subcellular protein fractionation kit instructions; endogenous in cells; host or cells: DU145; details: for grey density value of PARP1 band: MMS 0.01%, 4 hours
T1 sequence (P09874 whole entry): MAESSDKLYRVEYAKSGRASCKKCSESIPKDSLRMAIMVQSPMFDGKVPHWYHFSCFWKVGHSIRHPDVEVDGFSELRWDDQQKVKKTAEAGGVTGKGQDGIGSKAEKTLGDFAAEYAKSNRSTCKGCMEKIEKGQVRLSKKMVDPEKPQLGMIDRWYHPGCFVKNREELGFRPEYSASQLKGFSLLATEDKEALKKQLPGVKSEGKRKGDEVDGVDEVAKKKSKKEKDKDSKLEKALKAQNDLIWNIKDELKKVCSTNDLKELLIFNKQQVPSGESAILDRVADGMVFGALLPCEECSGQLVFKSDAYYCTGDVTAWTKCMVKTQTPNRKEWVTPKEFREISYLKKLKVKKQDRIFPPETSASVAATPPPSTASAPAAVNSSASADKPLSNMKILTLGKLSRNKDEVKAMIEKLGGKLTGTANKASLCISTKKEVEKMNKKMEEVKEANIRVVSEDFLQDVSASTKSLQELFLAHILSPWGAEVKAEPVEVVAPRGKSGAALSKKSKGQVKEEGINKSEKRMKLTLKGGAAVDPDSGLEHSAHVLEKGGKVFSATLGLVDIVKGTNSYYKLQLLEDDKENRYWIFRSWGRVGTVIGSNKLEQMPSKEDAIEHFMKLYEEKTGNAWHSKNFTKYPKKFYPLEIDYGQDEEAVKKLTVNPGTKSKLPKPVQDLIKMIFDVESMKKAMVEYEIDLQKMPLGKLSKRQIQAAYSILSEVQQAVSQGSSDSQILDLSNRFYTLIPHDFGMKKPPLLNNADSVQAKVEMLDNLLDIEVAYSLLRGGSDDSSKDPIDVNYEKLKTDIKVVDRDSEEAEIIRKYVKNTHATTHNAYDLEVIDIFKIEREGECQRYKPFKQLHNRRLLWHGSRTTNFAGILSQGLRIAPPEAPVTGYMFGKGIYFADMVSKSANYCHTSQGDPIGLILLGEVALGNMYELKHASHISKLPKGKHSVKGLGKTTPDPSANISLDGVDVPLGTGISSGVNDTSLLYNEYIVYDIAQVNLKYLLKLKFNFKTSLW
Procedure: Human prostate cancer DU145 cells were used in the experiment. On the first day, cells were seeded to 10 cm cell culture dishes and kept in an incubator overnight. […] The plates were swirled, and the cells were kept in an incubator at 37° C., 5% CO2 for 4 hours. Totally 12 samples were prepared and tested. After incubation, the nuclear chromosomal component was extracted according to subcellular protein fractionation kit instructions. Protein concentration was measured by Pierce® BCA Protein Assay Kit (Thermo) and protein was ready for western blot assay. 10 μg protein was loaded into each well of bolt gels, then wet transfer was performed, and the membrane was incubated overnight at 4° C. with anti-PARP antibody (Santa Cruz Biotechnology) with 1.500 dilution and 1:25000 dilution of anti-H3 antibody, respectively. The membrane was washed the next day with TBST 3 times, 5 minutes/time, then incubated with Goat anti-rabbit IgG-HRP (Santa Cruz Biotechnology) in a 1:4000 dilution for 1 hour at room temperature. ECL Prime Western Blotting Det kit (GE) was used to develop the target on the membrane.

PARP1 [7] = target: T1, PARP1; assay: PARP1 trapping in HCT116 cells treated with TMZ (Western blot of chromatin-bound proteins, ImageJ); format: cell-based; set-up: endogenous in cells; host or cells: HCT116; details: for grey density value of PARP1 band: 4 hours, HCT116
Procedure: Colorectal carcinoma HCT116 cells were used in the experiment Cells in exponential growth phase were trypsinized and seeded to 10 cm cell culture plate at a density about 10-20% confluency After two days when cell density reached 70-80%, the cell culture was replaced with fresh medium containing vehicle, 0.1 μM or 10 μM of IMP4297 either in the presence or absence of 1 mM TMZ. Cells were treated for 4 hours. Chromatin-bound proteins were extracted according to the “Subcellular Protein Fractionation Kit for Cultured Cells (Thermo, LOT78840)” protocol.
PARP trapping was detected using SDS-PAGE electrophoresis followed by Western blot Extracted chromatin-bound protein samples were mixed with 5×SDS-PAGE solution and heated for 5 min at 100° C. Equal amount (25-30 μg) of protein was loaded to each lane on a pre-made SDS-PAGE gel (Genscript SurePAGE™, Bis-Tris, 4-20%, 15 wells M00657). Anti-PARP1 antibody (ABCAM ab227244) used in the study was 1:1000 diluted, anti-Histone 113 antibody (ABCAM ab1791) was 1.5000 diluted and anti-rabbit IgG HRP-linked Antibody (CST 7074s) was 1:2000 diluted. The bands were detected by standard Western blot protocol.

[8] = tested on: animal model with BRCA mutation; assay: IMP4297 single agent efficacy in animal model with BRCA mutation; format: in vivo; details: 2.5-20 mg/kg QD in mice
[9] = separate medication, 5 days, CCK-8, read-out: IC50, proliferation of NCI-H209 cells

Cn1nnc2c(C(N)=O)ncn2c1=O [TMZ, Temozolomide, reference compound]
IC50 [1, 9]: > 100 µM | T/C (%) ([2]; TMZ 3 mg/kg p.o. QD x 21 D): 64.03**** % | TGI (%) ([2]; TMZ 3 mg/kg p.o. QD x 21 D): 31.66**** % | Average weight change (%) ([2]; TMZ 3 mg/kg p.o. QD x 21 D, versus initial weight): 7.99 ± 5.21% | body weight reduction during the experiment [2]: no body weight reduction

O=C(c1cc(Cc2n[nH]c(=O)c3ccccc23)ccc1F)N1CCN(C(=O)C2CC2)CC1 [Olaparib]
IC50 ([1]; read-out: IC50, proliferation of NCI-H209 cells): 2.18 µM | single effective dose (BRCA mutant animal model; BRCA mutant animal model study): 50-100 mg/kg per day | effect on TMZ-related hematological toxicity (recurrent glioblastoma): exacerbate TMZ-related hematological toxicity

Cn1ncnc1[C@H]1c2n[nH]c(=O)c3cc(F)cc(c23)N[C@@H]1c1ccc(F)cc1 [Talazoparib]
single agent effective dose (BRCA mutant animal model; BRCA mutated model): 0.33 mg/kg

O=C(c1cc(Cn2c(=O)[nH]c(=O)c3c(F)cccc32)ccc1F)N1CCN(c2ncccn2)CC1 [IMP4297, 5-fluoro-1-(4-fluoro-3-(4-(pyrimidin-2-yl)piperazine-1-carbonyl)benzyl)quinazoline-2,4(1H,3H)-dione]
effective dose as a single agent [3]: 2.5-20 mg/kg per day | clinically effective dose as a single agent (cancer [4]; cancer patients): 20 to 120 mg | RP2D as a single agent (cancer [4]): 100 mg | therapeutic window (cancer [5]): 6 fold | grey density value of PARP1 band (PARP1 [6]; 0.01 μmol/L drug, DU145): 3667.63 | grey density value of PARP1 band (PARP1 [6]; 0.1 μmol/L drug, DU145): 4932.39 | grey density value of PARP1 band (PARP1 [6]; 1 μmol/L drug, DU145): 6036.79 | grey density value of PARP1 band (PARP1 [6]; 10 μmol/L drug, DU145): 5302.8 | PARP1 trapping in nuclear chromosome (PARP1 [6]; 0.01-10 μM, DU145 cells treated with MMS): good PARP1 trapping | PARP1 trapping compared with Olaparib (PARP1 [6]; same concentrations and conditions, DU145): stronger PARP1 trapping in nuclear chromosome than Olaparib | IC50 [1, 9]: 0.113 µM | T/C (%) ([2]; IMP4297 10 mpk p.o. QD x 21 D): 79.12** % | TGI (%) ([2]; IMP4297 10 mpk p.o. QD x 21 D): 18.80** % | body weight reduction during the experiment [2]: no body weight reduction | inhibitory effect on tumor growth versus vehicle ([2]; single agent: TMZ 3 mg/kg, IMP4297 10 mg/kg): no significant inhibitory effect on tumor growth | PARP1 trapping in nuclear chromosome (PARP1 [7]; 0.1-10 μM in HCT116 cells in the presence of TMZ): good PARP1 trapping | grey density value of PARP1 band (PARP1 [7]; IMP4297 0.1 μmol/L in the presence of TMZ 1 mM): 398 | grey density value of PARP1 band (PARP1 [7]; IMP4297 0.1 μmol/L, vehicle (no TMZ)): 141 | grey density value of PARP1 band (PARP1 [7]; IMP4297 10 μmol/L in the presence of TMZ 1 mM): 446 | grey density value of PARP1 band (PARP1 [7]; IMP4297 10 μmol/L, vehicle (no TMZ)): 182 | therapeutic window [8]: 8 fold
